Experiments:
[1] = tested on: Cabbage Looper (Trichoplusia ni) ("CL"); assay: Bioassay on cabbage looper (CL), 128-well diet tray assay; format: in vivo; conditions: for mortality at 50 µg/cm2: 168 h, 50 μg/cm^2 on artificial diet, second instar CL larvae, 25° C., five to seven days, average of eight wells, read-out: CL % Control (or Mortality) rating; for pest or weed control at 50 µg/cm2: Table ABC (PC), activity rating class, read-out: CL (Biological Results, Insect species)
In short: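 Percent mortality, averaged across eight replicate wells, was read after five to seven days at 25 °C under a 14:10 photoperiod. Each well held one to five second-instar T. ni on diet carrying a dried 50 μg/cm^2 dose applied in acetone-water 90:10.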

[2] = tested on: Beet Armyworm (Spodoptera exigua) ("BAW"); assay: Bioassay on beet armyworm (BAW), 128-well diet tray assay; format: in vivo; conditions: for mortality at 50 µg/cm2: 168 h, 50 μg/cm^2 on artificial diet, second instar BAW larvae, 25° C., five to seven days, average of eight wells, read-out: BAW % Control (or Mortality) rating; for pest or weed control at 50 µg/cm2: Table ABC (PC), activity rating class, read-out: BAW (Biological Results, Insect species)
In short: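 Percent mortality, averaged across eight wells, was read after five to seven days at 25° C. under 14:10 light-dark. Each well held one to five second-instar larvae on artificial diet that had been treated with 50 μg/cm^2 compound in 90:10 acetone-water and dried.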

| SMILES | mortality at 50 µg/cm2 [1] [%] | mortality at 50 µg/cm2 [2] [%] | pest or weed control at 50 µg/cm2 [1] [%] | pest or weed control at 50 µg/cm2 [2] [%] |
| --- | --- | --- | --- | --- |
| CCc1cccc(C)c1N1C(=O)CS/C1=N\C(=O)NCCCCc1cccc(-c2ncn(-c3ccc(OC(F)(F)F)cc3)n2)c1 [P179, (Z)-1-(3-(2-ethyl-6-methylphenyl)-4-oxothiazolidin-2-ylidene)-3-(4-(3-(1-(4-(trifluoromethoxy)phenyl)-1H-1,2,4-triazol-3-yl)phenyl)butyl)urea] | 0 | 0 | – | – |
| Cc1ccc(N2C(=O)CS/C2=N\C(=O)NCCCCc2cccc(-c3ncn(-c4ccc(OC(F)(F)F)cc4)n3)c2)c(C(C)C)c1 [P180, (Z)-1-(3-(2-isopropyl-4-methylphenyl)-4-oxothiazolidin-2-ylidene)-3-(4-(3-(1-(4-(trifluoromethoxy)phenyl)-1H-1,2,4-triazol-3-yl)phenyl)butyl)urea] | 50 to 100 | 0 | – | – |
| CC(C)c1cc(F)ccc1N1C(=O)CS/C1=N\C(=O)NCCCCc1cccc(-c2ncn(-c3ccc(OC(F)(F)F)cc3)n2)c1 [P181] | 50 to 100 | 50 to 100 | – | – |
| COc1ccc(C(C)C)c(N2C(=O)CS/C2=N\C(=O)NCCCCc2cccc(-c3ncn(-c4ccc(OC(F)(F)F)cc4)n3)c2)c1 [P182, (Z)-1-(3-(2-isopropyl-5-methoxyphenyl)-4-oxothiazolidin-2-ylidene)-3-(4-(3-(1-(4-(trifluoromethoxy)phenyl)-1H-1,2,4-triazol-3-yl)phenyl)butyl)urea] | 50 to 100 | 50 to 100 | – | – |
| CCC(CNC(=O)/N=C1\SCC(=O)N1c1cc(C)ccc1C(C)C)c1ccc(-c2ncn(-c3ccc(OC(F)(F)F)cc3)n2)cc1 (stereo not shown) [P364, (Z)-1-(3-(2-isopropyl-5-methylphenyl)-4-oxothiazolidin-2-ylidene)-3-(2-(4-(1-(4-(trifluoromethoxy)phenyl)-1H-1,2,4-triazol-3-yl)phenyl)butyl)urea] | 50 to 100 | 50 to 100 | – | – |
| Cc1ccccc1NC(=S)NC(=O)NCc1ccc(-c2ncn(-c3ccc(OC(F)(F)F)cc3)n2)cc1 [PC1, 1-(o-tolylcarbamothioyl)-3-[[4-[1-[4-(trifluoromethoxy)phenyl]-1H-1,2,4-triazol-3-yl]phenyl]methyl]urea] | – | – | 50 to 100 | 50 to 100 |
| CC(C)c1cc(F)ccc1NC(=S)NC(=O)NCc1ccc(-c2ncn(-c3ccc(OC(F)(F)F)cc3)n2)cc1 [PC3, 1-[(4-fluoro-2-isopropyl-phenyl)carbamothioyl]-3-[[4-[1-[4-(trifluoromethoxy)phenyl]-1H-1,2,4-triazol-3-yl]phenyl]methyl]urea] | – | – | 50 to 100 | 50 to 100 |
| Cc1ccc(NC(=S)NC(=O)NCc2ccc(-c3ncn(-c4ccc(OC(F)(F)F)cc4)n3)cc2)c(C(C)C)c1 [PC5, 1-[(2-isopropyl-4-methyl-phenyl)carbamothioyl]-3-[[4-[1-[4-(trifluoromethoxy)phenyl]-1H-1,2,4-triazol-3-yl]phenyl]methyl]urea] | – | – | 50 to 100 | 50 to 100 |
| CCc1ccc(C)cc1NC(=S)NC(=O)NCc1ccc(-c2ncn(-c3ccc(OC(F)(F)F)cc3)n2)cc1 [PC7] | – | – | 50 to 100 | 50 to 100 |
| CCCc1ccc(C)cc1NC(=S)NC(=O)NCc1ccc(-c2ncn(-c3ccc(OC(F)(F)F)cc3)n2)cc1 [PC8, 1-[(5-methyl-2-propyl-phenyl)carbamothioyl]-3-[[4-[1-[4-(trifluoromethoxy)phenyl]-1H-1,2,4-triazol-3-yl]phenyl]methyl]urea] | – | – | 50 to 100 | 50 to 100 |
| Cc1ccc(NC(=S)NC(=O)NCc2ccc(-c3ncn(-c4ccc(C(F)(F)F)cc4)n3)cc2)c(C(C)C)c1 [PC15, 1-[(2-isopropyl-4-methyl-phenyl)carbamothioyl]-3-[[4-[1-[4-(trifluoromethyl)phenyl]-1,2,4-triazol-3-yl]phenyl]methyl]urea] | – | – | 50 to 100 | 50 to 100 |
| Cc1ccccc1NC(=S)NC(=O)NCCc1cccc(-c2ncn(-c3ccc(OC(F)(F)F)cc3)n2)c1 [PC74, 1-(o-tolylcarbamothioyl)-3-[2-[3-[1-[4-(trifluoromethoxy)phenyl]-1H-1,2,4-triazol-3-yl]phenyl]ethyl]urea] | – | – | 50 to 100 | 50 to 100 |
| CCc1cccc(C)c1NC(=S)NC(=O)NCCc1cccc(-c2ncn(-c3ccc(OC(F)(F)F)cc3)n2)c1 [PC83, 1-[(2-ethyl-6-methyl-phenyl)carbamothioyl]-3-[2-[3-[1-[4-(trifluoromethoxy)phenyl]-1H-1,2,4-triazol-3-yl]phenyl]ethyl]urea] | – | – | 50 to 100 | 50 to 100 |
| Cc1ccccc1NC(=S)NC(=O)NCCCc1ccc(-c2ncn(-c3ccc(OC(F)(F)F)cc3)n2)cc1 [PC92, 1-(o-tolylcarbamothioyl)-3-[3-[4-[1-[4-(trifluoromethoxy)phenyl]-1H-1,2,4-triazol-3-yl]phenyl]propyl]urea] | – | – | 50 to 100 | 50 to 100 |
| CCc1ccccc1NC(=S)NC(=O)NCCCc1ccc(-c2ncn(-c3ccc(OC(F)(F)F)cc3)n2)cc1 [PC93, 1-[(2-ethylphenyl)carbamothioyl]-3-[3-[4-[1-[4-(trifluoromethoxy)phenyl]-1H-1,2,4-triazol-3-yl]phenyl]propyl]urea] | – | – | 50 to 100 | 50 to 100 |
| CC(C)c1ccccc1NC(=S)NC(=O)NCCCc1ccc(-c2ncn(-c3ccc(OC(F)(F)F)cc3)n2)cc1 [PC94, 1-[(2-isopropylphenyl)carbamothioyl]-3-[3-[4-[1-[4-(trifluoromethoxy)phenyl]-1H-1,2,4-triazol-3-yl]phenyl]propyl]urea] | – | – | 50 to 100 | 50 to 100 |
| CCc1cccc(C)c1NC(=S)NC(=O)NCCCc1ccc(-c2ncn(-c3ccc(OC(F)(F)F)cc3)n2)cc1 [PC101, 1-[(2-ethyl-6-methyl-phenyl)carbamothioyl]-3-[3-[4-[1-[4-(trifluoromethoxy)phenyl]-1H-1,2,4-triazol-3-yl]phenyl]propyl]urea] | – | – | 50 to 100 | 50 to 100 |
| CCc1ccccc1NC(=S)NC(=O)NCCCc1cccc(-c2ncn(-c3ccc(OC(F)(F)F)cc3)n2)c1 [PC119, 1-[(2-ethylphenyl)carbamothioyl]-3-[3-[3-[1-[4-(trifluoromethoxy)phenyl]-1H-1,2,4-triazol-3-yl]phenyl]propyl]urea] | – | – | 50 to 100 | 50 to 100 |
| CC(C)c1ccccc1NC(=S)NC(=O)NCCCc1cccc(-c2ncn(-c3ccc(OC(F)(F)F)cc3)n2)c1 [PC120, 1-[(2-isopropylphenyl)carbamothioyl]-3-[3-[3-[1-[4-(trifluoromethoxy)phenyl]-1H-1,2,4-triazol-3-yl]phenyl]propyl]urea] | – | – | 50 to 100 | 50 to 100 |
| Cc1ccc(C(C)C)c(NC(=S)NC(=O)NCCCc2cccc(-c3ncn(-c4ccc(OC(F)(F)F)cc4)n3)c2)c1 [PC124, 1-[(2-isopropyl-5-methyl-phenyl)carbamothioyl]-3-[3-[3-[1-[4-(trifluoromethoxy)phenyl]-1H-1,2,4-triazol-3-yl]phenyl]propyl]urea] | – | – | 50 to 100 | 50 to 100 |
| CCCc1ccc(C)cc1NC(=S)NC(=O)NCCCc1cccc(-c2ncn(-c3ccc(OC(F)(F)F)cc3)n2)c1 [PC125, 1-[(5-methyl-2-propyl-phenyl)carbamothioyl]-3-[3-[3-[1-[4-(trifluoromethoxy)phenyl]-1H-1,2,4-triazol-3-yl]phenyl]propyl]urea] | – | – | 50 to 100 | 50 to 100 |
| CCc1cccc(C)c1NC(=S)NC(=O)NCCCc1cccc(-c2ncn(-c3ccc(OC(F)(F)F)cc3)n2)c1 [PC127, 1-[(2-ethyl-6-methyl-phenyl)carbamothioyl]-3-[3-[3-[1-[4-(trifluoromethoxy)phenyl]-1H-1,2,4-triazol-3-yl]phenyl]propyl]urea] | – | – | 50 to 100 | 50 to 100 |
| Cc1ccc(NC(=S)NC(=O)NCCCc2cccc(-c3ncn(-c4ccc(OC(F)(F)F)cc4)n3)c2)c(C(C)C)c1 [PC128, 1-[(2-isopropyl-4-methyl-phenyl)carbamothioyl]-3-[3-[3-[1-[4-(trifluoromethoxy)phenyl]-1H-1,2,4-triazol-3-yl]phenyl]propyl]urea] | – | – | 50 to 100 | 50 to 100 |
| CC(C)c1cc(F)ccc1NC(=S)NC(=O)NCCCc1cccc(-c2ncn(-c3ccc(OC(F)(F)F)cc3)n2)c1 [PC129, 1-[(4-fluoro-2-isopropyl-phenyl)carbamothioyl]-3-[3-[3-[1-[4-(trifluoromethoxy)phenyl]-1H-1,2,4-triazol-3-yl]phenyl]propyl]urea] | – | – | 50 to 100 | 50 to 100 |
| COc1ccc(NC(=S)NC(=O)NCCCc2cccc(-c3ncn(-c4ccc(OC(F)(F)F)cc4)n3)c2)c(C)c1 [PC131, 1-[(4-methoxy-2-methyl-phenyl)carbamothioyl]-3-[3-[3-[1-[4-(trifluoromethoxy)phenyl]-1H-1,2,4-triazol-3-yl]phenyl]propyl]urea] | – | – | 50 to 100 | 50 to 100 |
| Cc1ccccc1NC(=S)NC(=O)NCCCCc1ccc(-c2ncn(-c3ccc(OC(F)(F)F)cc3)n2)cc1 [PC144, 1-(o-tolylcarbamothioyl)-3-[4-[4-[1-[4-(trifluoromethoxy)phenyl]-1H-1,2,4-triazol-3-yl]phenyl]butyl]urea] | – | – | 50 to 100 | 50 to 100 |

Source: patent publication US9783532B2, “Molecules having certain pesticidal utilities, and intermediates, compositions, and processes related thereto” (Dow AgroSciences LLC, priority 2013, dated 2017)
